For data set [1], the target named is T1, human GlxI (Homo sapiens, UniProt Q04760).
T1 construct: hGlxI from human erythrocytes; from tissue; host or cells: human erythrocytes
T1 sequence (Q04760 2-184 limits assumed): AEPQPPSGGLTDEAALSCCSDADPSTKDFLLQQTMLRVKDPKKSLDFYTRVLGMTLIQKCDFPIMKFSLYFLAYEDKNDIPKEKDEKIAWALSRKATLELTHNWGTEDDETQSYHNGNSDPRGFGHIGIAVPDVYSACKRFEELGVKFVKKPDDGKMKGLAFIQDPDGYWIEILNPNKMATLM
Briefly: Competitive inhibition constants (Kis) with human GlxI. The class given is biochemical. The protocol: (§1) Competitive inhibition constants (Kis) of bivalent and monovalent enzyme inhibitors with human GlxI or yeast GlxI (yGlxI) were obtained from the change in the initial rates of product formation at various concentrations of the substrate in the presence or absence of the inhibitor. To a 1 ml cuvette containing 50 mM sodium phosphate buffer, pH 7.0, 0.5 mM EDTA, 25° C. and different concentrations of thiohemiacetal substrates with fixed concentrations of inhibitor was added approximately 0.02 U of enzyme. The initial rates of product formation were followed on the basis of the increase in absorbancy at 240 nm. Inhibition constants were obtained by fitting the initial rate data to the equation for competitive inhibition.

The target in data set [2] is T2, yeast GlxI (Saccharomyces cerevisiae, UniProt P50107).
T2 sequence (P50107 1-326): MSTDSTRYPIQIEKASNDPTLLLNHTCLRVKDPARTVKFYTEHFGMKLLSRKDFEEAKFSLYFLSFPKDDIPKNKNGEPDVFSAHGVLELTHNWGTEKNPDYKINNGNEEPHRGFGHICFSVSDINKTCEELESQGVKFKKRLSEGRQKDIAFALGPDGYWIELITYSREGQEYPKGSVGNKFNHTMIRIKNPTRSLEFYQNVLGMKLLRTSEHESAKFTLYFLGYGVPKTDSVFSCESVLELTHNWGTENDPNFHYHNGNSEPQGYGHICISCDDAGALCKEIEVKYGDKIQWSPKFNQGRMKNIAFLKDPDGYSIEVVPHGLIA
The data set is described as follows: Competitive inhibition constants (Kis) with yeast GlxI. Type of data set: biochemical. The following applies: sodium phosphate buffer, 50 mM, pH 7, 25° C.; mean (±S.D.) duplicate; read-out: Ki, yGlxI. Here is the method: as §1

Data set [3] deals with T3, bovine liver GlxII (Bos taurus, UniProt Q3B7M2).
T3 construct: yeast GlxI (yGlxI) and bovine liver GlxII (bGlXII); from tissue; host or cells: bovine liver
The data set is described as follows: Competitive inhibition constants (Kis) with bovine liver GlxII. The class given is biochemical. The following applies: sodium phosphate buffer, 50 mM, pH 7, 25° C.; mean (±S.D.) duplicate; read-out: Ki, bGlxII.

Data set [4] concerns the target T1, human GlxI. Briefly: Irreversible inactivation kinetics of human GlxI. Type of data set: biochemical. The protocol: Incubation mixtures of enzyme (10 units/ml) and known concentrations of inactivator in phosphate buffer were separately incubated in plastic bullet tubes maintained at 25° C. in a water bath. Aliquots were removed, diluted into a quartz cuvette containing one ml GSH-methylglyoxal-thiohemiacetal, and the rate of product formation (ΔOD (240)) monitored as a function of time. From the initial rate of product formation, the activity of the enzyme was calculated. The slope of a plot of in (fraction of enzyme activity remaining) versus time gives the apparent first-order rate constant (kinact) for inactivation of hGlxI. A plot of kinact versus inactivator concentration (FIG. 7.) gives the dissociation constant (Kd and the maximum value of kinact).

Data set [5] has as its system DMS114 lung and DU145 prostate xenografts. The following applies: cited from earlier work.
Data set [6] relates to murine leukemia L1210 cells. The following applies: cited from earlier work; for IC50: after 72 hours of incubation, diethyl ester prodrugs, read-out: IC50, growth of L1210 cells.
Data set [7] addresses T3, bovine liver GlxII. The following applies: cited from earlier work.
Data set [8] has as its system human prostate PC3 tumors. The following applies: cited from earlier work.
The subject of data set [9] is murine melanotic melanoma. The following applies: cited from earlier work; for efficacy relative to positive control adriamycin: at much higher dosages than adriamycin.
In data set [10] the test system is human colon HT29 tumors. The following applies: cited from earlier work.
Setting [11] is: sodium phosphate buffer, 50 mM, pH 7, 25° C., mean (±S.D.) triplicate, read-out: Ki, hGlxI.
The mark [12] stands for this setting: glycerol (20%) in sodium phosphate buffer, pH 7, 25° C.

Read-outs that look alike come from different tables or passages of the source.

For `O=C(O)CNC(=O)[C@H](CSC(=O)N(O)c1ccc(Cl)cc1)NC(=O)CC[C@H](NC(=O)CCNC(=O)CCCCCCC(=O)NCCC(=O)N[C@@H](CCC(=O)N[C@@H](CSC(=O)N(O)c1ccc(Cl)cc1)C(=O)NCC(=O)O)C(=O)O)C(=O)O` [[CHG(β-Ala)n]2sub., n = 1, [CHG(β-ala)]2Suberate Diamide], the Ki (commonly the equilibrium dissociation constant of an inhibitor or competing ligand from its target) came to 70.1 ± 1.3 nM in data set [1] (setting [11]), 3000 ± 200 nM in data set [2] and 35 ± 4 nM in [3].
As to `N[C@@H](CCC(=O)N[C@@H](CSCC(=O)OCCCCOC(=O)CBr)C(=O)NCC(=O)O)C(=O)O`, in data set [4] (setting [12]), the “irreversible inactivation of human GlxI” value is listed as “irreversibly inactivate human GlxI” and the kinact – broadly, the maximal first-order rate at which the target is inactivated – was 0.000267 s⁻¹. Also, the Kd – broadly, the free concentration of one partner at which half of the binding sites on the other are occupied at equilibrium, for simple one-to-one binding – in data set [4] (glycerol (20%) in sodium phosphate buffer, pH 7, 25° C., fit of kobsd vs concentration, read-out: Kd (dissociation constant) for inactivation of human GlxI) worked out at 177000 ± 43000 nM.
Regarding `N[C@@H](CCC(=O)N[C@@H](CSCc1ccc(Br)cc1)C(=O)NCC(=O)O)C(=O)O` [(S-p-bromobenzyl)glutathione (BBG), (S-p-bromobenzyl)glutathione], the “efficacy against human lung tumors (DMS114) in mice” value in data set [5] (dosages of 100 mg/kg) is “effective”. The adverse side effects entry in data set [5] (during the 21 days of administration, 100 mg/kg) is “no evidence of adverse side effects”.
`CCOC(=O)CNC(=O)C(CSC(=O)N(O)c1ccc(Br)cc1)NC(=O)CCC(N)C(=O)OCC` (stereo not shown) [BHG(Et)2]: in data set [6], the IC50 (as a rule, the midpoint of a concentration-inhibition curve) was 16000 nM.
`O=C(O)CNC(=O)C(CSC(=O)N(O)c1ccc(Cl)cc1)NC(=O)CCC(NC(=O)CCNC(=O)CCNC(=O)CCNC(=O)CCNC(=O)CCNC(=O)CCCCCCC(=O)NCCC(=O)NCCC(=O)NCCC(=O)NCCC(=O)NCCC(=O)NC(CCC(=O)NC(CSC(=O)N(O)c1ccc(Cl)cc1)C(=O)NCC(=O)O)C(=O)O)C(=O)O` (stereo not drawn) [[CHG(β-Ala)n]2sub., n = 5, [CHG (β-ala)5]2suberate diamide]: the Ki in data set [1] (setting [11]) came to 7.5 ± 0.5 nM.
For the compound “[CHG (β-ala)7]2suberate diamide [[CHG(β-Ala)n]2sub., n = 7]”, the Ki in data set [1] (setting [11]) was 0.97 ± 0.02 nM; in data set [2], 4100 ± 500 nM; in data set [3], 79 ± 8 nM.
Take `CN(O)C(=O)SC[C@H](NC(=O)CC[C@H](N)C(=O)O)C(=O)NCC(=O)O` [S—(N-methyl-N-hydroxycarbamoyl)glutathione]: the “substrate for bovine liver GlxII” value in data set [7] was “substrates for bovine liver GlxII”.
With `O=C(O)CNC(=O)C(CSC(=O)N(O)c1ccc(Cl)cc1)NC(=O)CCC(NC(=O)CCNC(=O)CCNC(=O)CCCCCCC(=O)NCCC(=O)NCCC(=O)NC(CCC(=O)NC(CSC(=O)N(O)c1ccc(Cl)cc1)C(=O)NCC(=O)O)C(=O)O)C(=O)O` (stereo not drawn) [[CHG(β-Ala)n]2sub., n = 2, [CHG(β-ala)2]2suberate diamide], the Ki in [1] (setting [11]) was determined as 75.9 ± 7.4 nM; in data set [3], 50 ± 5 nM.
As to `O=C(O)CNC(=O)C(CSC(=O)N(O)c1ccc(Cl)cc1)NC(=O)CCC(NC(=O)CCNC(=O)CCNC(=O)CCNC(=O)CCCCCCC(=O)NCCC(=O)NCCC(=O)NCCC(=O)NC(CCC(=O)NC(CSC(=O)N(O)c1ccc(Cl)cc1)C(=O)NCC(=O)O)C(=O)O)C(=O)O` (stereo not drawn) [[CHG(β-Ala)n]2sub., n = 3, [CHG(β-ala)3]2suberate diamide], the Ki in data set [1] (setting [11]) worked out at 84.1 ± 2.4 nM.
As for `O=C(O)CNC(=O)C(CSC(=O)N(O)c1ccc(Cl)cc1)NC(=O)CCC(NC(=O)CCNC(=O)CCNC(=O)CCNC(=O)CCNC(=O)CCCCCCC(=O)NCCC(=O)NCCC(=O)NCCC(=O)NCCC(=O)NC(CCC(=O)NC(CSC(=O)N(O)c1ccc(Cl)cc1)C(=O)NCC(=O)O)C(=O)O)C(=O)O` (stereo not drawn) [[CHG(β-Ala)n]2sub., n = 4, [CHG (β-ala)4]2suberate diamide], the Ki came to 59.6 ± 2 nM in data set [1] (setting [11]) and 9000 ± 300 nM in data set [2].
Regarding “N-(tri-beta-ala hydroxyethylamide ethylenediamine bis(hexanedioic acid O-carbonylethyl)S—(N-p-bromophenyl-N-hydroxy-carbamoyl)glutathione [polyBHG2-54]”, the Ki in data set [1] (competitive inhibition, read-out: Ki values, human GlxI) is 0.3 nM.
Take `N[C@@H](CCC(=O)N[C@@H](CSC(=O)N(O)c1ccccc1)C(=O)NCC(=O)O)C(=O)O` [S—(N-phenyl-N-hydroxycarbamoyl)glutathione]: the “substrate for bovine liver GlxII” value in data set [7] is listed as “substrates for bovine liver GlxII”.
With `N[C@@H](CCC(=O)N[C@@H](CSC(=O)N(O)c1ccc(Br)cc1)C(=O)NCC(=O)O)C(=O)O` [BHG, S—(N-p-bromophenyl-N-hydroxy-carbamoyl)glutathione], the “substrate for bovine liver GlxII” value in [7] is listed as “substrates for bovine liver GlxII”.
As for `CCOC(=O)CNC(=O)[C@H](CSC(=O)N(O)c1ccc(Cl)cc1)NC(=O)CC[C@H](N)C(=O)OCC` [CHG(Et)2], the haemopoetic toxicity entry in [8] (PC3 tumor-bearing mice) is on record as “without the cisplatin-associated haemopoetic toxicity”. In [8] (bolus i.v. administration), the “growth of PC3 tumors” value is on record as “inhibited the growth” and the “potency relative to positive control cisplatin” value is “as good as the positive control cisplatin”. For the same compound, the “effect on PC3 tumors” value in data set [8] (continuous infusion over 12 days) is reported as “no effect was observed”. Besides, the “efficacy relative to positive control adriamycin” value in data set [9] was “as effective as the positive control adriamycin”. Further, in [9] (following i.v. bolus administration), the “accumulation of drug in melanoma” value was “significant accumulation of drug in melanoma”. The “toxicity to L1210 cells versus normal splenic lymphocytes in culture” value in data set [6] (Kavarana et al 1999) is given as “significantly more toxic to murine leukemia L1210 cells than to normal splenic lymphocytes”. For the same compound, in data set [6], the IC50 is 5000 nM. For the same compound, the “efficacy against HT29 tumors” value in [10] (bolus administration) is reported as “efficacy was not observed”. For the same compound, in [10] (continuous i.v. infusion), the “potency relative to positive control vincristin” value was “as good as the positive control vincristin” and the side-effects entry is given as “without any detectable side-effects”.
Regarding `NCCC(=O)NC(CCC(=O)NC(CSC(=O)N(O)c1ccc(Cl)cc1)C(=O)NCC(=O)O)C(=O)O` (stereo not drawn) [CHG(β-Ala)n, n = 1], the Ki came out at 330 ± 6 nM in data set [1] (setting [11]) and 1200 ± 12 nM in data set [3].
For `N[C@@H](CCC(=O)N[C@@H](CSC(=O)N(O)c1ccc(Cl)cc1)C(=O)NCC(=O)O)C(=O)O` [CHG, S—(N-p-chlorophenyl-N-hydroxycarbamoyl)glutathione, reference compound], the “substrate for bovine liver GlxII” value in data set [7] is “substrates for bovine liver GlxII”. The “binds more tightly to hGlxI than to yGlxI” value in [1] (ratio of Ki yGlxI / hGlxI) was found to be 78 fold. In addition, in data set [4] (reversible inhibitor present), the “protection of the enzyme from inactivation by BPG/BBG” value is given as “protects the enzyme from inactivation”.
Consider `CCOC(=O)CNC(=O)C(CSC(=O)N(O)c1ccccc1)NC(=O)CCC(N)C(=O)OCC` (stereo not shown) [PHG(Et)2], for which the IC50 in [6] is 63000 nM.
Regarding `NC(CCC(=O)NC(CSC(=O)N(O)c1ccc(Cl)cc1)C(=O)NCC(=O)OC1CCCC1)C(=O)OC1CCCC1` (stereo not shown) [CHG(cyclopentyl)2], the “efficacy relative to positive control adriamycin” value in data set [9] is on record as “as effective as the positive control adriamycin”.
